Where a name gives a salt, the structure may show the parent alone. Read-outs that look alike come from different tables or passages of the source.

In assay [1] the test system is papillary muscle preparation. Nature of the assay: Isolated, blood-perfused papillary muscle preparation, developed tension (Table 1). Details: species or system Mongrel dogs. As to conditions: Canis lupus familiaris, close-arterial injection, read-out: Papillary muscle preparation, % increase in developed tension; for activation at 0.03 mg: dose 30 μg; for activation at 0.1 mg: dose 100 μg; for activation at 0.3 mg: dose 300 μg. How it is done:
Mongrel dogs of either sex weighting 7.5-10 kg were anesthetized with sodium pentobarbital (30 mg/kg, i.v.). Each animal was given an intravenous dose of sodium heparin (500 units/kg), thereafter, the heart was removed and placed in cold Tyrode solution. The isolated and cross-circulated right atrium and papillary muscle preparations were arranged for perfusion from a donor dog as follows. The donor dog was also anesthetized with sodium pentobarbital (30 mg/kg, i.v.); heparin (500 units/kg) was given intravenously immediately before the perfusion began. (a) The isolated, blood-perfused papillary muscle preparation. The anterior septal artery was dissected and cannulated with polyethylene tubing. The tendinous end of the papillary muscle was connected to a strain-gauge transducer by a fine silk thread and the muscles were under about 2 g of resting tension. The papillary muscle preparation was electrically driven at a constant frequency of 120/min with rectangular pulses of 1-3 V and 5 msec duration. The preparation of the blood-perfused papillary muscle has been described in detail by Endoh and Hashimoto Am. J. Physiol, 218, 1459-1463 (1970). Each preparation was perfused with the arterial blood from the carotid artery of the donor dog at a constant perfusion pressure of 100 mmHg by means of a peristaltic pump. The venous effluent from the preparations was collected in a reservoir and returned to the donor dog through the jugular vein. Test compounds used in these experiments were dissolved in vehicle solution and were injected closearterially to the preparations. The effects of each compound on the developed tension and sinuo rate were evaluated as a percentage change in values determined before and after administration of the compound. In Table 1 are shown such changes in terms of the percentage increase after administration.

Another assay concerns right atrium preparation. Description: Isolated, blood-perfused right atrium preparation, sinus rate (Table 1). Details: species or system Mongrel dogs. Conditions: Canis lupus familiaris, close-arterial injection, read-out: Right atrium preparation, % increase in sinus rate; for activation at 0.03 mg: dose 30 μg; for activation at 0.1 mg: dose 100 μg; for activation at 0.3 mg: dose 300 μg. How it is done:
Mongrel dogs of either sex weighting 7.5-10 kg were anesthetized with sodium pentobarbital (30 mg/kg, i.v.). Each animal was given an intravenous dose of sodium heparin (500 units/kg), thereafter, the heart was removed and placed in cold Tyrode solution. The isolated and cross-circulated right atrium and papillary muscle preparations were arranged for perfusion from a donor dog as follows. The donor dog was also anesthetized with sodium pentobarbital (30 mg/kg, i.v.); heparin (500 units/kg) was given intravenously immediately before the perfusion began. (b) The isolated, blood-perfused right atrium preparation. The sinus node artery was cannulated at its origin in the right coronary artery. A right atrial electrogram was obtained from bipolar electrodes which were placed in close proximity to the sinoatrial node. The sinus rate was recorded by a cardiotachometer triggered by the right atrial electrogram. The details of the bloodperfused right atrium preparation have been described by Chiba et al. (Tohoku J. exp. Med., 107, 101-102 (1972) and Kubota and Hashimoto (Naunyn-Schmiedeberg's Arch. Pharmacol., 278, 135-150 (1973)). Each preparation was perfused with the arterial blood from the carotid artery of the donor dog at a constant perfusion pressure of 100 mmHg by means of a peristaltic pump. The venous effluent from the preparations was collected in a reservoir and returned to the donor dog through the jugular vein. Test compounds used in these experiments were dissolved in vehicle solution and were injected closearterially to the preparations. The effects of each compound on the developed tension and sinuo rate were evaluated as a percentage change in values determined before and after administration of the compound. In Table 1 are shown such changes in terms of the percentage increase after administration.

Assay [2] concerns anesthetized open-chest dogs. Nature of the assay: Cardiovascular effect in anesthetized open-chest dogs (Table 2). Format: in vivo, Mongrel dogs. Conditions: femoral vein; for change in vivo at 0.1 mg/kg / change in vivo at 0.3 mg/kg / change in vivo at 0.01 mg/kg / change in vivo at 0.03 mg/kg: Canis lupus familiaris, iv. How it is done:
Mongrel dogs of either sex weighing 9-15 kg were anesthetized with sodium pentobarbital (30 mg/kg, i.v.). The heart was exposed by thoractomy by the left fifth intercostal incision under artificial respiration. Aortic flow was measured by the probe of electromagnetic flowmeter placed around the ascending aorta. Myocardial contractility was measured by the maximal rate of rise of left ventricular pressure which was recorded from a needle inserted into the ventricular cavity. The systemic blood pressure was measured with a pressure transducer by means of a polyethylene cannular inserted into the femoral artery. The heart rate was recorded by a cardiotrachometer triggered by R wave of electrocargiogram (Lead II). Test compounds were dissolved in vehicle solution and were injected into the femoral vein. The effects of each compound on the cardiac contractility and aortic flow were evaluated as a percentage change in values determined before and after administration of the compound. In Table 2 are shown such changes in terms of the percentage increase after administration.

Setting [3] is: 0.1 mg/kg, read-out: Increase in aortic flow (%).
The mark [4] stands for this setting: 0.1 mg/kg, read-out: Increase in cardiac contractility (%).
Setting [5] is: 0.3 mg/kg, read-out: Increase in aortic flow (%).
The mark [6] stands for this setting: 0.3 mg/kg, read-out: Increase in cardiac contractility (%).
Where [7] appears, read: read-out: Increase in aortic flow (%).
Where [8] appears, read: read-out: Increase in cardiac contractility (%).

With `CNC(=N)c1ccc(CCc2ccc(CN)cc2)cc1` [Compound 1, 4-[2-(4-aminomethylphenyl)ethyl]-N-methylbenzamidine dihydrochloride], the activation at 0.03 mg in assay [1] was determined as 44.1%; with right atrium preparation it was 26.2%. Further, the figures for the activation at 0.1 mg (in assay [1]; in the assay on right atrium preparation) were 78.1% and 34.1%, respectively. In addition, the change in vivo at 0.1 mg/kg in assay [2] (setting [3]) is 30.4%; in assay [2] (setting [4]) it was 42.1%. Moreover, the results for the change in vivo at 0.3 mg/kg in assay [2] (setting [5]) and in assay [2] (setting [6]) were 38.8% and 57.5%, respectively.
Regarding `CNC(=N)c1ccc(CCc2ccc(CN)cc2OC)cc1` [Compound 3, 4-[2-(4-Aminomethyl-2-methoxyphenyl)ethyl]-N-methylbenzamidine dihydrochloride], the activation at 0.03 mg worked out at 73.3% in assay [1] and 17.9% in the assay on right atrium preparation. Besides, the figures for the activation at 0.1 mg (in assay [1]; in the assay with right atrium preparation) were 115% and 32.5%, respectively. For the same molecule, the change in vivo at 0.01 mg/kg was 4.1% in assay [2] (setting [7]) and 14% in assay [2] (setting [8]). The change in vivo at 0.03 mg/kg was found to be 21.7% in assay [2] (setting [7]) and 24.6% in assay [2] (setting [8]).
In the case of `CCCCNC(=N)c1ccc(CCc2ccc(CN)cc2)cc1.Cl.Cl` [Compound 4, 4-[2-(4-Aminomethylphenyl)ethyl]-N-n-butyl-benzamidine dihydrochloride], the activation at 0.03 mg in assay [1] turned out to be 45.8%; in the assay with right atrium preparation it was 19%. Also, the activation at 0.1 mg in assay [1] was 76.5%; in the assay with right atrium preparation, 30.6%. In addition, the “% decrease in cardiac contractility (in parentheses)” value (“% decrease in cardiac contractility” for short) in assay [2] (0.3 mg/kg) was -3.4%. Besides, the change in vivo at 0.1 mg/kg is 20% in assay [2] (setting [3]) and 26.1% in assay [2] (setting [4]). Also, the change in vivo at 0.3 mg/kg in assay [2] (setting [5]) came to 50%; in assay [2] (setting [6]), 52.9%.
As to `N=C(NCCc1ccccn1)c1ccc(CCc2ccc(CN)cc2)cc1` [Compound 6, 4-[2-(4-Aminomethylphenyl)ethyl]-N-[2-(2-pyridyl)ethyl]benzamidine trihydrochloride], the activation at 0.1 mg in assay [1] worked out at 57.7%; in the assay with right atrium preparation, 7.5%. Besides, the activation at 0.3 mg is 93.5% in assay [1] and 18.3% with right atrium preparation. For the same molecule, the change in vivo at 0.03 mg/kg turned out to be 1.8% in assay [2] (setting [7]) and 5.2% in assay [2] (setting [8]). Besides, the change in vivo at 0.1 mg/kg in assay [2] (setting [3]) was 6.5%; in assay [2] (setting [4]), 18%.
On to `CNC(=N)c1ccc(C=Cc2ccc(CN)cc2)cc1` [Compound 7, 4-[2-(4-aminomethylphenyl)ethenyl]-N-methylbenzamidine dihydrochloride], for which the activation at 0.1 mg was found to be 44.7% in assay [1] and 8.3% with right atrium preparation. The figures for the activation at 0.3 mg (in assay [1]; in the assay on right atrium preparation) were 66% and 28.2%, respectively. For the same molecule, the change in vivo at 0.1 mg/kg in assay [2] (setting [3]) was found to be 4.2%; in assay [2] (setting [4]) it was 3.1%. The change in vivo at 0.3 mg/kg in assay [2] (setting [5]) is 13.8%; in assay [2] (setting [6]), 16.7%.
Regarding `CC(=O)O.N=C(N)c1ccc(OCc2ccc(CN)cc2)c(C(=O)c2ccccc2)c1` [Compound 9, 4-(4-Aminomethylbenzyloxy)-3-benzoylbenzamidine acetate], the results for the activation at 0.1 mg (in assay [1]; with right atrium preparation) were 52.2% and 15.5%, respectively. Further, the activation at 0.3 mg in assay [1] amounted to 71.7%; in the assay with right atrium preparation it was 24.3%. For the same molecule, in assay [2] (0.1 mg/kg), the “% decrease in aortic flow (in parentheses)” value was -7.9%. For the same molecule, the “% decrease in cardiac contractility” value in assay [2] (0.1 mg/kg) was -7.1%. For the same molecule, the change in vivo at 0.1 mg/kg was 3.9% in assay [2] (setting [3]) and 12.5% in assay [2] (setting [4]).
With `CNC(=N)c1ccc(OCc2ccc(CN)cc2)cc1` [Compound 10, 4-(4-Aminomethylbenzyloxy)-N-methylbenzamidine dihydrochloride], the figures for the activation at 0.1 mg (in assay [1]; with right atrium preparation) were 27.9% and 11.6%, respectively. In addition, the activation at 0.3 mg in assay [1] worked out at 54.4%; with right atrium preparation, 17.9%. In addition, the change in vivo at 0.3 mg/kg in assay [2] (setting [5]) stood at 2.5%; in assay [2] (setting [6]) it was 8.7%.
For the molecule `N=C(N)c1ccc(OCc2ccc(CCCN)cc2)c(C(=O)c2ccccc2)c1` [Compound 11, 4-[4-(3-Aminopropyl)benzyloxy]-3-benzoylbenzamidine dihydrochloride], the activation at 0.03 mg in assay [1] worked out at 48.8%; in the assay with right atrium preparation, 32%. Also, the activation at 0.1 mg in assay [1] was 82.5%; with right atrium preparation, 71.4%. Besides, the change in vivo at 0.1 mg/kg in assay [2] (setting [3]) turned out to be 7.5%; in assay [2] (setting [4]), 14.3%.
Regarding `CNC(=N)c1ccc(OCc2ccc(C=CCN)cc2)c(C(=O)c2ccccc2)c1` [Compound 12, 4-[4-(3-amino-1-propenyl)benzyloxy]-3-benzoyl-N-methylbenzamidine dihydrochloride], the results for the activation at 0.03 mg (in assay [1]; in the assay with right atrium preparation) were 46.2% and 23.3%, respectively. For the same molecule, the activation at 0.1 mg in assay [1] was 77.8%; in the assay with right atrium preparation, 31.6%. The change in vivo at 0.03 mg/kg in assay [2] (setting [7]) worked out at 6.1%; in assay [2] (setting [8]) it was 18.8%. Also, the figures for the change in vivo at 0.1 mg/kg in assay [2] (setting [3]) and in assay [2] (setting [4]) were 8.7% and 40%, respectively.
For `CNC(=N)c1ccc(CCc2ccc(CN)cc2[N+](=O)[O-])cc1` [Compound 13, N-Methyl-4-[2-(4-aminomethyl-2-nitrophenyl)ethyl]benzamidine dihydrochloride], the activation at 0.03 mg in assay [1] came to 64.2%; in the assay on right atrium preparation it was 32.3%. The results for the activation at 0.1 mg (in assay [1]; in the assay with right atrium preparation) were 95.5% and 35.9%, respectively. The change in vivo at 0.03 mg/kg was determined as 5.7% in assay [2] (setting [7]) and 29% in assay [2] (setting [8]). For the same molecule, the change in vivo at 0.1 mg/kg in assay [2] (setting [3]) was 12.1%; in assay [2] (setting [4]) it was 66.7%.
Consider `Br.Br.CN=C(NC)c1ccc(CCc2ccc(CN)cc2)cc1` [Compound 14, N,N'-Dimethyl-4-[2-(4-aminomethylphenyl)ethyl]benzamidine dihydrobromide], for which the results for the activation at 0.03 mg (in assay [1]; with right atrium preparation) were 59% and 28.9%, respectively. Besides, the activation at 0.1 mg in assay [1] is 100%; in the assay on right atrium preparation it was 31.8%. Moreover, the “% decrease in aortic flow (in parentheses)” value in assay [2] (0.3 mg/kg) was -16.3%. Further, the “% decrease in cardiac contractility” value in assay [2] (0.3 mg/kg) was -6.8%. The change in vivo at 0.1 mg/kg in assay [2] (setting [3]) was 8.7%; in assay [2] (setting [4]), 30%. The change in vivo at 0.3 mg/kg in assay [2] (setting [5]) turned out to be 32.7%; in assay [2] (setting [6]), 47.5%.

Source of the values: US4598077A, “Amidine derivatives and cardiotonic compositions” (Torii & Co. Ltd., priority 1983, dated 1986).
